“And” between values parts separate entries of the source, which are not always exact repeats. Equal values may be shown once. Where a name gives a salt, the structure may show the parent alone.

One experiment has as its system corneal ulcerations. The note with it: alkali burned rabbit, eye; cited from earlier work.
The next experiment concerns collagenase. The note with it: collagenase, or a proteinase contaminant in the collagenase preparation; cited from earlier work.
In experiment [1] the target is T1, human skin fibroblast collagenase (Homo sapiens, UniProt P03956).
T1 construct: endogenous in cells; host or cells: human skin fibroblasts (from the enzyme's name; preparation not described)
T1 sequence (P03956 100-469): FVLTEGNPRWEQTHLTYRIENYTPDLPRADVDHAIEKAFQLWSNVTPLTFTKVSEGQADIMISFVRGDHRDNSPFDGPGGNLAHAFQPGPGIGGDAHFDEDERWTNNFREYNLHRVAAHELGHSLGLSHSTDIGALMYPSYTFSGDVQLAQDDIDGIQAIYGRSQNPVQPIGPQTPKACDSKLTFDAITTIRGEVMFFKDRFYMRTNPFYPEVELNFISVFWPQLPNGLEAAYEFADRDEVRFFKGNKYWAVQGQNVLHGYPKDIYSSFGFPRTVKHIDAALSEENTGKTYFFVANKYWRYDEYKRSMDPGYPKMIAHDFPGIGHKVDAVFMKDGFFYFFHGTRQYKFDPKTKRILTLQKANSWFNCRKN
Briefly: Collagenase Assay, Test Code 006 (degradation of 14C-labeled native collagen fibrils). It is filed as biochemical. The conditions noted are these: 16 hours at 37° C., based on 0% value for enzyme control; for % Inhibition of Collagenase / inhibition at 30 µg/mL: test concentration 30 μg/ml. As for the experimental part: Collagenase assays were performed by a modification of the method of Harper, et. al., Biochem. 10: 3035 (1971). In a typical assay (total volume of 0.45 ml), 100 μl of the activated enzyme was added to the 14 C-labeled collagen fibrils (250 μl) followed by 100 μl of 50 mM cacodylate, pH 7.4, containing 5 mM calcium chloride. After incubation at 37° C. for 16 hours, the tubes were centrifuged in a Beckman microfuge for five minutes at full speed. An aliquot (200 μl) of the supernatant, representing collagenase digestion products of the fibril, was assayed for radioactivity. The effect of the test compound on collagen degradation by collagenase was examined as follows:
Varying concentrations of the test compound (in distilled water or dimethylacetamide) were added to the assay tubes containing active collagenase (total volume 450 μl) and after 16 hours the amount of radioactivity in the supernatant was determined. Appropriate blanks and trypsin controls were run in parallel.
The activities are expressed as % inhibition (lowering) of collagenase activity, i.e., based on the 0% value for the enzyme control.

In another experiment the test system is corneal ulceration. The note with it: human; cited from earlier work.

In the case of `O=C([O-])CN(CCN(CC(=O)[O-])CC(=O)[O-])CC(=O)[O-].[Ca+2].[Ca+2]` [Calcium ethylenediaminetetraacetate], in the experiment with corneal ulcerations, the frequency of ulceration result is reported as “reduce the frequency of ulceration”. With `Cc1ccc(C(=O)Nc2ccc(S(=O)(=O)O)c3cc(S(=O)(=O)O)cc(S(=O)(=O)O)c23)cc1NC(=O)c1cccc(NC(=O)Nc2cccc(C(=O)Nc3cc(C(=O)Nc4ccc(S(=O)(=O)O)c5cc(S(=O)(=O)O)cc(S(=O)(=O)O)c45)ccc3C)c2)c1` [Suramin], in the experiment on collagenase, the “inhibition of the activity of collagenase” value is listed as “not inhibiting the action of collagenase”. With `Cc1ccc(NC(=O)Nc2ccc(C)c(C(=O)Nc3cc(S(=O)(=O)O)cc4cc(S(=O)(=O)O)cc(O)c34)c2)cc1C(=O)Nc1cc(S(=O)(=O)O)cc2cc(S(=O)(=O)O)cc(O)c12` [4,4'-[Ureylenebis(6-methyl-3,1-phenylenecarbonylimino)]bis[5-hydroxy-2,7-naphthalenedisulfonic acid]tetrasodium salt], in experiment [1], the “% Inhibition of Collagenase” value was 36% and 35%; the inhibition at 30 µg/mL stood at 50%. The molecule further came in with an inhibition at 60 µg/mL in experiment [1] (test concentration 60 μg/ml) of 39%. For `Cc1cc(-c2ccc(/N=N/c3c(S(=O)(=O)O)cc4cc(S(=O)(=O)O)cc(N)c4c3O)c(C)c2)ccc1/N=N/c1c(S(=O)(=O)O)cc2cc(S(=O)(=O)O)cc(N)c2c1O` [trypan blue], the “inhibition of the activity of collagenase” value in the experiment on collagenase is “inhibiting the activity of collagenase”. For `O=C(Nc1cccc(C(=O)Nc2cc3c(O)cc(S(=O)(=O)O)cc3cc2S(=O)(=O)O)c1)Nc1cccc(C(=O)Nc2cc3c(O)cc(S(=O)(=O)O)cc3cc2S(=O)(=O)O)c1` [3,3'-[Ureylenebis(m-phenylenecarbonylimino)]bis[5-hydroxy-2,7-naphthalenedisulfonic acid]tetrasodium salt], at 30 µg/mL the inhibition in experiment [1] was 41%.

`N[C@@H](CS)C(=O)O` [cysteine]: in the experiment on corneal ulceration, the “effectiveness in treatment of acute and chronic corneal ulceration” value is given as “effective”. In turn, `Cc1cc(C(=O)Nc2cc(S(=O)(=O)O)cc3cc(S(=O)(=O)O)cc(O)c23)ccc1NC(=O)Nc1ccc(C(=O)Nc2cc(S(=O)(=O)O)cc3cc(S(=O)(=O)O)cc(O)c23)cc1C` [4,4'-[Ureylenebis(3-methyl-p-phenylenecarbonylimino)]bis[5-hydroxy-2,7-naphthalenedisulfonic acid]tetrasodium salt] had an inhibition at 30 µg/mL in experiment [1] of 78%. With `Cc1c(NC(=O)Nc2cccc(C(=O)Nc3cc(S(=O)(=O)O)cc4cc(S(=O)(=O)O)cc(O)c34)c2C)cccc1C(=O)Nc1cc(S(=O)(=O)O)cc2cc(S(=O)(=O)O)cc(O)c12` [4,4'-[Ureylenebis(2-methyl-3,1-phenylenecarbonylimino)]bis[5-hydroxy-2,7-naphthalenedisulfonic acid]tetrasodium salt], in experiment [1], the “% Inhibition of Collagenase” value is listed as 45% and the inhibition at 30 µg/mL was 32.2%. `O=C(Nc1ccc(C(=O)Nc2cccc3cc(S(=O)(=O)O)cc(O)c23)c(S(=O)(=O)O)c1)Nc1ccc(C(=O)Nc2cccc3cc(S(=O)(=O)O)cc(O)c23)c(S(=O)(=O)O)c1` [5,5'-[Ureylenebis(2-sulfo-4,1-phenylenecarbonylimino)]bis[4-hydroxy-2-naphthalenesulfonic acid]tetrasodium salt] yielded an inhibition at 30 µg/mL in experiment [1] of 58%. The molecule `O=C(Nc1cccc(C(=O)Nc2cc(S(=O)(=O)O)cc3cc(S(=O)(=O)O)cc(O)c23)c1)Nc1cccc(C(=O)Nc2cc(S(=O)(=O)O)cc3cc(S(=O)(=O)O)cc(O)c23)c1` [4,4'[Ureylenebis(m-phenylenecarbonylimino)]bis[5-hydroxy-2,7-naphthalenedisulfonic acid]tetrasodium salt] registered an inhibition at 30 µg/mL in experiment [1] of 41%. Consider `CC(=O)N[C@@H](CS)C(=O)O` [acetylcysteine], for which the frequency of ulceration entry with corneal ulcerations is on record as “reduce the frequency of ulceration”. Besides, the “effectiveness in treatment of acute and chronic corneal ulceration” value with corneal ulceration is reported as “effective”.

These data come from patent US4391824A, “Ureylenebis (hydroxy naphthalenesulfonic acids)” (American Cyanamid Company, priority 1981, dated 1983).
